Reference: ChEMBL document CHEMBL5678796, “A highly potent and selective farnesyltransferase inhibitor ABT-100 in preclinical studies” (Anticancer Drugs, 2005)

How the values were obtained:
[1] = Inhibition of FTase in human DLD-1 cells expressing moderate level of P-gp1 using Ras as substrate assessed as inhibition of substrate post-translation processing in presence of 10% FBS by immunoblot analysis; format: cell-based
NIH3T3 [2] = test: Inhibition of anchorage-independent growth in H-Ras transformed mouse NIH3T3 cells assessed as inhibition of colony formation incubated for 14 days in presence of 10% bovine serum by imaging based soft agar colony formation assay; format: functional, cell-based
[3] = Cmax in dog at 2.5 mg/kg, po; format: ADME, organism-based, Canis lupus familiaris; details: in vivo
Mus musculus = test: Antiangiogenic activity in human recombinant VEGF-stimulated CF1 mouse corneal model assessed as inhibition of new blood growth area at 50 mg/kg, sc prestimulated with VEGF followed by compound administration and measured on day 7 by slit lamp biomicroscopic analysis relative to control; format: functional; details: CF1, 168 h, time 7 day
HCT-116 [4] = test: Antitumor activity against human HCT-116 cells xenografted in nu/nu CD1 mouse assessed as increase in life span at 50 mg/kg, sc preinoculated with cells for 14 days followed by once daily compound administration for 21 days and measured on day 40 relative to vehicle in time to 1 cm^3 tumor; format: functional; details: HCT-116, 960 h, time 40 day
[5] = Ratio of EC50 for inhibition of FTase in human HCT-15 cells expressing high level of P-gp1 using Ras as substrate assessed as inhibition of substrate post-translation processing in presence of 20% human serum to EC50 for inhibition of FTase in human HCT-15 cells expressing high level of P-gp1 using Ras as substrate assessed as inhibition of substrate post-translation processing in presence of 10% …; details: condition cancer
[6] = Inhibition of FTase in H-Ras transformed mouse NIH3T3 cells using Ras as substrate assessed as inhibition of substrate prenylation in presence of 10% bovine serum by immunoblot analysis; format: cell-based
[7] = Ratio of EC50 for inhibition of FTase in human DLD-1 cells expressing moderate level of P-gp1 using Ras as substrate assessed as inhibition of substrate post-translation processing in presence of 20% human serum to EC50 for inhibition of FTase in human DLD-1 cells expressing moderate level of P-gp1 using Ras as substrate assessed as inhibition of substrate post-translation processing in presence …; details: condition cancer
[8] = Inhibition of FTase in human HCT-116 cells expressing low level of P-gp1 using Ras as substrate assessed as inhibition of substrate post-translation processing in presence of 10% FBS by immunoblot analysis; format: cell-based
[9] = Clearance in rat at 5 mg/kg, iv; format: ADME, organism-based; details: in vivo
[10] = Half-life in dog at 2.5 mg/kg, iv; format: ADME, organism-based, Canis lupus familiaris; details: in vivo
NIH3T3 [11] = test: Inhibition of VEGF secretion in mouse NIH3T3 cells incubated for 72 hrs ELISA; format: functional, cell-based; details: dose 0.1-3 µmol/L
[12] = Selectivity index, ratio of IC50 for inhibition of bovine GGTase 1 to IC50 for inhibition of recombinant human FTase
HCT-116 [13] = test: Antitumor activity against human HCT-116 cells xenografted in nu/nu CD1 mouse assessed as increase in life span at 12.5 mg/kg, sc preinoculated with cells for 5 days followed by once daily compound administration for 21 days and measured on day 25 relative to vehicle in time to 1 cm^3 tumor; format: functional; details: HCT-116, 600 h, time 25 day
HCT-116 [14] = test: Inhibition of anchorage-independent growth in human HCT-116 cells assessed as inhibition of colony formation incubated for 14 days in presence of 10% FBS by imaging based soft agar colony formation assay; format: functional, cell-based
[15] = Inhibition of recombinant bovine FTase incubated for 30 mins in presence of [3H]FPP by SPA based Topcount scintillation plate reader analysis; parameters: species or system Bos taurus
[16] = Oral bioavailability in rat at 5 mg/kg; format: ADME, organism-based; details: in vivo
[17] = Inhibition of GGTase in H-Ras transformed mouse NIH3T3 cells using Rap 1A as substrate assessed as inhibition of substrate prenylation in presence of 10% bovine serum by immunoblot analysis; format: cell-based
[18] = AUC in rat at 5 mg/kg, po; format: ADME, organism-based; details: in vivo
[19] = Inhibition of recombinant human FTase incubated for 30 mins in presence of [3H]FPP by SPA based Topcount scintillation plate reader analysis
[20] = Oral bioavailability in dog at 2.5 mg/kg; format: ADME, organism-based, Canis lupus familiaris; details: in vivo
[21] = Inhibition of FTase in human DLD-1 cells expressing moderate level of P-gp1 using Ras as substrate assessed as inhibition of substrate post-translation processing in presence of 10% human serum by immunoblot analysis; format: cell-based
[22] = Volume of distribution in rat at 5 mg/kg, iv; format: ADME, organism-based; details: in vivo
[23] = Inhibition of FTase in human HCT-15 cells expressing high level of P-gp1 using Ras as substrate assessed as inhibition of substrate post-translation processing in presence of 20% human serum by immunoblot analysis; format: cell-based
[24] = Oral bioavailability in rat at 25 mg/kg; format: ADME, organism-based; details: in vivo
HCT-116 [25] = test: Antitumor activity against human HCT-116 cells xenografted in nu/nu CD1 mouse assessed as increase in life span at 6.25 mg/kg, sc preinoculated with cells for 5 days followed by once daily compound administration for 21 days and measured on day 25 relative to vehicle in time to 1 cm^3 tumor; format: functional; details: HCT-116, 600 h, time 25 day
HCT-116 [26] = test: Antitumor activity against human HCT-116 cells xenografted in nu/nu CD1 mouse assessed as tumor volume at 6.25 mg/kg, sc preinoculated with cells for 5 days followed by once daily compound administration for 21 days and measured on day 25 (reference value: 1569 +/- 165 mm^3); format: functional; details: time 25 day
HCT-116 [27] = test: Antitumor activity against human HCT-116 cells xenografted in nu/nu CD1 mouse assessed as tumor volume at 25 mg/kg, sc preinoculated with cells for 5 days followed by once daily compound administration for 21 days and measured on day 25 (reference value: 1569 +/- 165 mm^3); format: functional; details: time 25 day
HCT-116 [28] = test: Antitumor activity against human HCT-116 cells xenografted in nu/nu CD1 mouse assessed as reduction in tumor volume by measuring tumor to control ratio at 12.5 mg/kg, sc preinoculated with cells for 5 days followed by once daily compound administration for 21 days and measured on day 25; format: functional; details: time 25 day

Cn1cncc1[C@](O)(COc1ccc(C#N)cc1-c1ccc(OC(F)(F)F)cc1)c1ccc(C#N)cc1 [ABT-100]
EC50 [1]: 0.26 nM
EC50 (NIH3T3 [2]; NIH3T3, 336 h): 0.9 nM
inhibition (NIH3T3 [2]; time 14.0 day): Dose-Dependent Effect
Cmax [3]: 280 ng/mL
inhibition in vivo at 50 mg/kg (Mus musculus): 25%
ILS at 50 mg/kg (HCT-116 [4]): 52%
Ratio EC50 [5]: 1.5
EC50 [6]: 0.73 nM
Ratio EC50 [7]: 1.5
EC50 [8]: 0.43 nM
clearance [9]: 16.7 mL/min/kg
half-life [10]: 6.8 h
inhibition (NIH3T3 [11]): Dose-Dependent Effect
Ratio IC50 [12]: > 100000
ILS at 12.5 mg/kg (HCT-116 [13]): 61%
EC50 (HCT-116 [14]; HCT-116, 336 h): 6.1 nM
inhibition (HCT-116 [14]; time 14.0 day): Dose-Dependent Effect
IC50 [15]: 0.13 nM
bioavailability [16]: 15.1%
EC50 [17]: > 30000 nM
AUC [18]: 450 ng·h/mL
IC50 [19]: 0.05 nM
bioavailability [20]: 35.1%
EC50 [21]: 0.4 nM
Vd [22]: 5.6 L/kg
EC50 [23]: 1.1 nM
bioavailability [24]: 30.7%
ILS at 6.25 mg/kg (HCT-116 [25]): 50%
Activity (HCT-116 [26]): 899 mm3
Activity (HCT-116 [27]): 553 mm3
T/C (HCT-116 [28]): 39%
